One compound from patent US20120214784A1, “SPIROPIPERIDINE COMPOUNDS AS ORL-1 RECEPTOR ANTAGONISTS” (ELI LILLY AND COMPANY, priority 2009, published 2012) can be followed below.

Experiment in all cases: Radioligand binding selectivity
In assay [1] the target is 5-HT1E (Homo sapiens, UniProt P28566). Here is the method:
(§1) Radioligand binding assays are commonly used to determine the affinity (Ki) or potency of a compound to bind to a particular receptor or target protein. A filtration-based [3H]-OFQ/nociceptin receptor binding assay is developed based on previous assay formats (Ardati A, Henningsen R A, Higelin J, Reinscheid R K, Civelli O, Monsma F J Jr. Mol. Pharmacol. 1997 May; 51(5):816-24.) with minor modifications. [3H]-OFQ/nociceptin binding assays are carried out in deep-well 96-well plates. [^3H]OFQ (final assay concentration 0.2 nM) competition studies are carried out with 5-10 μg of membrane protein (isolated from Chinese hamster ovary cells (CHO cells) expressing cloned human ORL1 receptors) in a final assay volume of 0.5 mL of buffer containing 20 mM HEPES, pH 7.4, 5 mM MgCl2, 1 mM EGTA, 100 mM NaCl, 0.1% bovine serum albumin. Samples are incubated for 60 min. at room temperature, which is found to be optimal for competition assays. The assays are terminated by filtration through glass fiber filters (Wallac filtermat A) [pretreated with 0.3% polyethylenimine (Sigma) for 1 hr] on a Tometc cell harvester, and the filters are washed three times with 5 mL of ice-cold 50 mM Tris.HCl, pH 7.4. Filtermats are then dried and imbedded with Meltilex scintillant A and the radioactivity counted in a Wallac Microbeta scintillation counter. Specific binding is determined by displacement with 100 nM unlabeled nociceptin. Curves are plotted as the percent of specific binding and IC50 values are determined using a sigmoidal dose response curve with variable slope. K, values are calculated from the IC50 by the equation of Cheng and Prusoff (Cheng, Y. C., and Prusoff, W. H., Biochem. Pharmacol. 22, 3099-3108 (1973)) where Ki=IC50×(1+D×Kd^−1)^−1. Similarly, Ki for the mu, kappa and delta opioids, serotonin, adrenergic, and muscarinic receptors may be determined using membranes expressing the desired receptor and appropriate corresponding radioligand competitor molecules.

Assay [2] concerns the target Mu Opioid (Homo sapiens, UniProt P35372). The procedure:
as §1

The target in assay [3] is Muscarinic M5 (Homo sapiens, UniProt P08912). The procedure: as §1
Chain of Muscarinic M5 (P08912 whole entry): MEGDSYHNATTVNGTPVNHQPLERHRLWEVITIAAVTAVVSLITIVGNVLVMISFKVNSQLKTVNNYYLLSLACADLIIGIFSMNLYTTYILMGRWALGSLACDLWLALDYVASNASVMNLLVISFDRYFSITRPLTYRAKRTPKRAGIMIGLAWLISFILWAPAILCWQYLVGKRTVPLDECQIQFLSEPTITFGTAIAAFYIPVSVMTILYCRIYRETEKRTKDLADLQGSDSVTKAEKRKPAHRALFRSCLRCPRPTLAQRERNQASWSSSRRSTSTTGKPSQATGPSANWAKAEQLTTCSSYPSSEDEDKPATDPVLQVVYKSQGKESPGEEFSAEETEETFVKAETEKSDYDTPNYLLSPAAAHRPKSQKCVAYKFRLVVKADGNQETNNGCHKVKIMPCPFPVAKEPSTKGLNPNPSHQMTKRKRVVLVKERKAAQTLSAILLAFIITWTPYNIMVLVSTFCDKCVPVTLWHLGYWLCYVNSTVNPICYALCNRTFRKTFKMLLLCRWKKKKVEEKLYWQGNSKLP
Assay [4] has as its target 5-HT2C (Homo sapiens, UniProt P28335). The procedure: as §1
Assay [5] deals with 5-HT5 (Homo sapiens, UniProt P47898). The procedure: as §1
The target in assay [6] is Muscarinic M2 (Homo sapiens, UniProt P08172). Here is the method: as §1
The target in assay [7] is 5-HT1B (Homo sapiens, UniProt P28222). The procedure:
as §1

The target of assay [8] is Kappa Opioid (Homo sapiens, UniProt P41145). The procedure:
as §1

Assay [9] addresses 5-HT1D (Homo sapiens, UniProt P28221). Here is the method:
as §1

Assay [10] concerns the target 5-HT7 (Homo sapiens, UniProt P34969). The procedure: as §1
Assay [11] concerns the target Muscarinic M1 (Homo sapiens, UniProt P11229). Here is the method: as §1
For assay [12], the target named is 5-HT2B (Homo sapiens, UniProt P41595). The procedure:
as §1

In assay [13] the target is 5-HT4 (Homo sapiens, UniProt Q13639). The procedure:
as §1

Assay [14] concerns the target 5-HT2A (Homo sapiens, UniProt P28223). The procedure:
as §1

Assay [15] has as its target Muscarinic M3 (Homo sapiens, UniProt P20309). The procedure:
as §1

The target in assay [16] is 5-HT1A (Homo sapiens, UniProt P08908). Here is the method: as §1
Chain of 5-HT1A (P08908 whole entry, species assumed): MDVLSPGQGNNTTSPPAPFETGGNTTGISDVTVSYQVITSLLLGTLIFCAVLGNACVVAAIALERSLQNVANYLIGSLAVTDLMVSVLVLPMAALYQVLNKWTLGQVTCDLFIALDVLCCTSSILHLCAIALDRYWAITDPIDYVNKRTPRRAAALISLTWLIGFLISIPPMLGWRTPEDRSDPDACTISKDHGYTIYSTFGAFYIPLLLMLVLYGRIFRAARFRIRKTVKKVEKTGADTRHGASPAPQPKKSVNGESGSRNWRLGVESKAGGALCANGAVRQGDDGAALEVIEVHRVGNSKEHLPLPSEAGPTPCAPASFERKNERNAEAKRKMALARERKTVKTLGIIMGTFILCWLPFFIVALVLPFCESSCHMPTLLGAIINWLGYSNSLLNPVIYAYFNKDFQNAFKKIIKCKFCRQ
In assay [17] the target is 5-HT6 (Homo sapiens, UniProt P50406). Here is the method:
as §1

The target in assay [18] is Muscarinic M4 (Homo sapiens, UniProt P08173). Here is the method:
as §1

Assay [19] has as its target Delta Opioid (Homo sapiens, UniProt P41143). The procedure:
as §1

Chain of 5-HT7 (P34969 whole entry, species assumed): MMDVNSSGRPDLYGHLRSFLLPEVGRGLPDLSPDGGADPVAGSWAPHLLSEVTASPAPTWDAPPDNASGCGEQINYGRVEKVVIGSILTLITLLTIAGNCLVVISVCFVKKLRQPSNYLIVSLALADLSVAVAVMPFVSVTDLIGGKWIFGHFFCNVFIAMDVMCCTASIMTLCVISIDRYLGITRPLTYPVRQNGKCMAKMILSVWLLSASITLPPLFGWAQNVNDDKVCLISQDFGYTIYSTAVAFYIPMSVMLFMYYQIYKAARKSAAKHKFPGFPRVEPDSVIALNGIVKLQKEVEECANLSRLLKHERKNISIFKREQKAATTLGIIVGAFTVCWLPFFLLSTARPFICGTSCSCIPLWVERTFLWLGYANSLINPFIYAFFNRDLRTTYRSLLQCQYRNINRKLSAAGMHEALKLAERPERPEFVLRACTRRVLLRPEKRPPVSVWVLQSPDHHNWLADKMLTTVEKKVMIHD
Chain of 5-HT6 (P50406 whole entry, species assumed): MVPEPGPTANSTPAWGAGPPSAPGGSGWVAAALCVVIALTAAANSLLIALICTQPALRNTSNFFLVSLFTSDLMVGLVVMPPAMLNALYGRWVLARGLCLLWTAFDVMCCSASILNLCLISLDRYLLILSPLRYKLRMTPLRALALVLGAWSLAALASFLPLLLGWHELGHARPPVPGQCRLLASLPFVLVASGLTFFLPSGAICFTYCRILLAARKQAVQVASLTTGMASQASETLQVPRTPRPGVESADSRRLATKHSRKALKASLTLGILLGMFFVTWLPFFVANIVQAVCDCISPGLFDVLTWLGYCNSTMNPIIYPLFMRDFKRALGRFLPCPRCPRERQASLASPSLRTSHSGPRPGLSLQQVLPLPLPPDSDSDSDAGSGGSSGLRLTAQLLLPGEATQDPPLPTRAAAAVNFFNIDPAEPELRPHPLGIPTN
Chain of 5-HT2A (P28223 whole entry, species assumed): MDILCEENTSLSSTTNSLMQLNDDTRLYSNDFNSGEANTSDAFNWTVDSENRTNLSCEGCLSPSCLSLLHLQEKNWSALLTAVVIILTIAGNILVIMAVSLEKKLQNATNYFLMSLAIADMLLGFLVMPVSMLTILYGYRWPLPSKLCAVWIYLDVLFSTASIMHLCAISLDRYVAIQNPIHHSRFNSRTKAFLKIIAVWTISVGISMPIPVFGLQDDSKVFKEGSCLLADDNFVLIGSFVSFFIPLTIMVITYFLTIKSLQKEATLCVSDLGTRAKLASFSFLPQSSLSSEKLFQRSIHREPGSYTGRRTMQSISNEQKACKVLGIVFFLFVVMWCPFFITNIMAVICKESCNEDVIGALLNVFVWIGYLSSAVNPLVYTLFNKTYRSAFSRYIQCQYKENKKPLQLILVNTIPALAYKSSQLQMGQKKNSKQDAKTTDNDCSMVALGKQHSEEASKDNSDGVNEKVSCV
Chain of 5-HT2C (P28335 33-458, species assumed): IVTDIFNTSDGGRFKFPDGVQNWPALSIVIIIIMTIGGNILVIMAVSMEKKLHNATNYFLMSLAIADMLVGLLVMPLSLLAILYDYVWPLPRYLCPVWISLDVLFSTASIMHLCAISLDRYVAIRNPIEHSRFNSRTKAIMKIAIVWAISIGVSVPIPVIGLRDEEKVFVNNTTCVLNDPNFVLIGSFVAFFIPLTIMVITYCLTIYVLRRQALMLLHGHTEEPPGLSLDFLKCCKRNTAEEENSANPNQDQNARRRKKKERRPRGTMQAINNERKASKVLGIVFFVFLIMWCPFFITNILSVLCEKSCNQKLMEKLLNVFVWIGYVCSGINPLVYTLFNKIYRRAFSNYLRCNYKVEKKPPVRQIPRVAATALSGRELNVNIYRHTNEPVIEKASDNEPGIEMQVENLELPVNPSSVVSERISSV
Chain of Muscarinic M4 (P08173 whole entry): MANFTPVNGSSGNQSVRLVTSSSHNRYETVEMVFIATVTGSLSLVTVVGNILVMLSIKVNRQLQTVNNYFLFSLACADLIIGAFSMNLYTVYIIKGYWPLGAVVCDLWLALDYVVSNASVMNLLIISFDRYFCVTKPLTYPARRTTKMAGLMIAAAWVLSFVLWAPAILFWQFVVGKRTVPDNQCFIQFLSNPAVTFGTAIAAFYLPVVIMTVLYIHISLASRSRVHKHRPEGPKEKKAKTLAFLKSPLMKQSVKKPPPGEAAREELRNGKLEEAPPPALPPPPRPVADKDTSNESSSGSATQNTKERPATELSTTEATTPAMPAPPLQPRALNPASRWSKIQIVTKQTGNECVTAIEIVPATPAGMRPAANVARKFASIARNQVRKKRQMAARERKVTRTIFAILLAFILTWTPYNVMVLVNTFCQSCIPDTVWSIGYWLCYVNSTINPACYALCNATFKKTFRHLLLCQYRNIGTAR
Chain of Kappa Opioid (P41145 whole entry): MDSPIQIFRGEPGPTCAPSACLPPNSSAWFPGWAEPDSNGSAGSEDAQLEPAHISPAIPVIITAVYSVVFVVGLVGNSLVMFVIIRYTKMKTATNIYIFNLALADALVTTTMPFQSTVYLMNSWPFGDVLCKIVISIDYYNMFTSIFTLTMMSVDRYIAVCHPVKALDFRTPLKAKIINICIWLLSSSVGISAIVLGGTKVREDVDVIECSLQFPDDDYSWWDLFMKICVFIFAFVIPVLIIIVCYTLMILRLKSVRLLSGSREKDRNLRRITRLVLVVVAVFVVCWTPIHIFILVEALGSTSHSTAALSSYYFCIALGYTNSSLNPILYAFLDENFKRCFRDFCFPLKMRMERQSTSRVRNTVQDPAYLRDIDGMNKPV
Chain of Delta Opioid (P41143 whole entry): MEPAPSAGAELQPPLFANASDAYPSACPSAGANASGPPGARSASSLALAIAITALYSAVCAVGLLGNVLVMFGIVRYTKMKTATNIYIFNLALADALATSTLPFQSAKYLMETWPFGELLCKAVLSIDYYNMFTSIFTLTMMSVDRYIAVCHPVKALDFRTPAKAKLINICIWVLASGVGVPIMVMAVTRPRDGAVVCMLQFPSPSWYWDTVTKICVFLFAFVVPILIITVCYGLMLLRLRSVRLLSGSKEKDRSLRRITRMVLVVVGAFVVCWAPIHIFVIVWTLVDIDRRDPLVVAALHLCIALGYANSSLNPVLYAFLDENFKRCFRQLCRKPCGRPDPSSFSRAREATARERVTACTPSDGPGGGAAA
Chain of Mu Opioid (P35372 whole entry): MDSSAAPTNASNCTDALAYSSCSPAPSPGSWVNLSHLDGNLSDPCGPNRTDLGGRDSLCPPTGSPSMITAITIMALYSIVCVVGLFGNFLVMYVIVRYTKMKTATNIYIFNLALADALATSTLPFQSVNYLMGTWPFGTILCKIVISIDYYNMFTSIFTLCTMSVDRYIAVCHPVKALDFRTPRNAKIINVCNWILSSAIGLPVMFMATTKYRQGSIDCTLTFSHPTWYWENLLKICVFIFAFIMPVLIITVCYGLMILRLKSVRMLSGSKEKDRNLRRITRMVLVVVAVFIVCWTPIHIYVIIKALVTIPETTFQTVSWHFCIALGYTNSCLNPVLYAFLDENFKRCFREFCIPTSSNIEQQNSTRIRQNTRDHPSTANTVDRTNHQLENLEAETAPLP
Chain of 5-HT1B (P28222 whole entry, species assumed): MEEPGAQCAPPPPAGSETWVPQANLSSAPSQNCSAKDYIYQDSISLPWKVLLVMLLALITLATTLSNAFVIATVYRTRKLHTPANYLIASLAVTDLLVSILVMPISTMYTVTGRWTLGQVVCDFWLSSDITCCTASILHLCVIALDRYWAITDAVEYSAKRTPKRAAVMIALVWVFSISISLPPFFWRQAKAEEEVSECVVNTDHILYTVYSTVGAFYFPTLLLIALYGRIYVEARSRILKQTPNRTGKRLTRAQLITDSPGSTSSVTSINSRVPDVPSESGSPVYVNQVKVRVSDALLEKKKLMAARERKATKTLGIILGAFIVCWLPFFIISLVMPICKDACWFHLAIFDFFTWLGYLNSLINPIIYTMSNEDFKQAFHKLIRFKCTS

As a reminder, the Ki is the equilibrium dissociation constant of an inhibitor or competing ligand from its target. A low value points to higher affinity. `Cc1nn(-c2c(F)cccc2F)cc1CN1CCC2(CC1)OCC(F)(F)c1cc(Cl)sc12.O=C(O)C(O)C(O)C(=O)O` [Example 2, 2-Chloro-1′-[[1-(2,6-difluorophenyl)-3-methyl-pyrazol-4-yl]methyl]-4,4-difluoro-spiro[5H-thieno[2,3-c]pyran-7,4′-piperidine] (L)-Tartrate]: the Ki in [1] is greater than 5.37 µM; in [2] it was greater than 0.467 µM; in assay [3], 2.8 µM; in assay [4] it was greater than 8.36 µM; in [5] it was greater than 9.02 µM; in assay [6], greater than 8 µM. Also, the inhibition constant (Ki) in assay [7] is greater than 3.58 µM; in assay [8] it was greater than 0.458 µM; in [9] it was greater than 7.89 µM; in assay [10], greater than 3.98 µM; in assay [11], 1.38 µM; in [12], 1.16 µM. For the same compound, the Ki in [13] is greater than 1.97 µM; in [14], greater than 7.18 µM; in [15] it was greater than 24.2 µM; in assay [16] it was greater than 3.18 µM; in assay [17] it was greater than 5.83 µM; in [18] it was 6.36 µM. The same compound yielded a Ki in [19] greater than 0.481 µM.
